Columns and labels:
MCF7 cell line = test: CellTiter-Glo 2.0 cell viability, 7x7 combination dose response matrix, synergy scoring; format: cell-based
Text: (§1) A study was undertaken to determine whether the combination of a GSPT1-directed MGD and an inhibitor of the PI3K/AKT/mTOR pathway could be effective in killing cancer cells and whether certain combination could elicit a greater than additive effect on cell killing.
(§2) FIG. 1 is a flow diagram of the method used to assess cancer cell killing by a combination of a GSPT1-directed MGD and an inhibitor of the PI3K/AKT/mTOR pathway. Certain of the materials and equipment used in the studies are presented in Table 3 and the cell lines used are presented in Table 4.
(§3) All assays were run in triplicate. Each 384-well plate accommodated six 7×7 dose response matrices (FIG. 2). All compound handling was performed using an Echo 650 Series Acoustic Liquid Handler, which enables fully automated, precise, contact-free acoustic transfer in volumes as low as 2.5 nL.
(§4) The following protocol was used for cell plating: • 1. Warm media to room temperature or 37° C. • 2. Prepare complete phenol-free media by adding 10% FBS+1% Pen-Strep to RPMI 1640 Medium or DMEM. • 3. Aspirate media from T175 tissue culture flask and rinse with 10 ml PBS. • 4. Aspirate PBS and add 2 mL 0.25% trypsin. Incubate the flask at 37° C. for 5 min or until cells are detached. • 5. Add 10 mL complete media to the flask to neutralize the trypsin, then collect cells in a 50 mL conical tube. • 6. Centrifuge cells at 300 g for 5 min. Aspirate media and suspend cell pellet in fresh media. Use cell strainer to strain cells into a new 50 mL conical tube. • 7. […] Mix 100 uL cell suspension with 100 uL trypan blue (1:1) and pipette 20 μL of the mixture into each of 2 counting chambers on a slide. Insert slide. • b. Adjust focus and record the live cell count. At least 2 independent measurements should be taken. […] Cell viability should be greater than 90%. […] Dilute cell suspension to the desired concentration (20000 cells/mL) using complete phenol-free media. Prepare 10 mL cell suspension per plate+an extra 10 mL for priming the liquid handler. • 9. Dispense cells into 384-well plates using the liquid handler at 25 uL/well (500 cells/well). 3 plates should be prepared per compound plate to be treated. • 10. Cells should be dispensed into columns 1-23 only. Media only (no cells) should be dispensed into column 24. • 11. Allow plates to rest at RT for 30 minutes before transferring to the incubator. Incubate cells overnight at 37° C., 95% humidity, and 5% CO2.
(§5) Compound plates were prepared as follows using an Echo 650 Series Acoustic Liquid Handler. • 1. A compound plate containing 7-point dose responses of each compound to be treated is first prepared from stock compounds. • 2. The cell plates are treated with compounds according to the following maps, where the first compound is added across all six 7 by 7 dose response matrices, and its concentration varies by row (FIG. 2; top matrix), whereas the second compound varies for each dose response matrix, and its concentration varies by column (FIG. 2; bottom matrix). Each cell plate receives one Compound A and six different Compound Bs. • 3. To prepare a compound plate, 384-well PP plate with stock compounds (highest concentration) is prepared. Compounds are diluted 1:1000 in the cell plates, e.g. 10 mM on compound plate will be 10 uM on cell plate. A 384-well LDV plate with pre-determined volumes of DMSO is prepared. Echo is used to dilute stock compounds from PP plate into LDV plate to prepare 7-point dose responses.
(§6) Compounds were added to the cells and cell viability was measured after 72 hour incubation using CellTiter-Glo 2.0 Cell Viability Assay (Promega): • 1. For a compound addition, Echo is used to transfer 25 nL from the compound plate wells to the cell plates according to the plate maps shown in FIG. 2. Cell plates are treated in triplicate. Each well of the cell plate has 25 uL media (1:1000 dilution). Incubate cells post-treatment at 37° C., 95% humidity, and 5% CO2 for 72 hrs (step 106). • 2. […]

MDA-MB-231 cell line = test: as above; format: cell-based; conditions: MDA-MB-231; combined with M2698 41-10000 nM; first compound 0.41-100 nM
Text: as §1, §2, §3, §4, §5, §6

MDA-MB-157 cell line = test: as above; format: cell-based; conditions: combined with M2698 41-10000 nM, first compound 0.41-100 nM
Text: as §1, §2, §3, §4, §5, §6

CAL51 cell line = test: as above; format: cell-based
Text: as §1, §2, §3, §4, §5, §6

RAJI cell line = test: CTG viability, 11x11 concentration matrix, Loewe synergy (lymphoma); conditions: inhibitor combined with compound 1-1, 11x11 matrix, 72 hours
Procedure: (§7) Cells were cultured in the media recommended by the supplier.
(§8) On the day before compound addition, cells were seeded in 384-well-plates (white with clear flat bottom) at the densities indicated in Table 6 in 40 μL of growth medium. The next day, compounds were dispensed from 10 mM stocks using a HP D300 dispenser according to the concentration matrices described above. For each cell line, the compound concentration matrices were dispensed twice as side-by-side duplicates on one 384-well-plate. In addition, each plate contained 14 wells with only growth medium and 44 wells with cells treated with DMSO alone to calculate the average background and maximal signals, respectively. The final DMSO concentration was normalized to 0.2% across the plates. Plates were then incubated for 72 hours. CellTiter-Glo® Luminescent Cell Viability Assay (CTG, Promega G7570) reagent was prepared according to the manufacturer's instructions. Plates were equilibrated to room temperature for approximately 30 minutes, 25 μL CTG reagent was added to each well and plates were mixed on an orbital shaker for 10 minutes to allow for cell lysis. After further incubation for 20 minutes at room temperature, the clear bottoms of the plates were pasted with white back seal and luminescence was read on an EnVision plate reader (measurement time 0.1 seconds).

SU-DHL-6 cell line = test: as above; conditions: inhibitor combined with compound 1-1, 11x11 matrix, 72 hours
Procedure: as §7, §8

WSU-DLCL2 cell line = test: as above; conditions: inhibitor combined with compound 1-1, 11x11 matrix, 72 hours
Procedure: as §7, §8

DOHH-2 cell line = test: as above; conditions: inhibitor combined with compound 1-1, 11x11 matrix, 72 hours
Procedure: as §7, §8

DB cell line = test: as above; conditions: inhibitor combined with compound 1-1, 11x11 matrix, 72 hours
Procedure: as §7, §8

[1] = MCF7, combined with Alpelisib 41-10000 nM, first compound 0.41-33.33 nM
[2] = MCF7, combined with Alpelisib 41-10000 nM, first compound 0.41-100 nM
[3] = MCF7, combined with Capivasertib 41-10000 nM, first compound 0.41-100 nM
[4] = MCF7, combined with GNE-477 41-10000 nM, first compound 0.41-100 nM
[5] = MCF7, combined with HS173 41-10000 nM, first compound 0.41-100 nM
[6] = MCF7, combined with M2698 41-10000 nM, first compound 0.41-100 nM
[7] = MCF7, combined with Serabelisib 41-10000 nM, first compound 0.41-100 nM
[8] = CAL51, combined with Alpelisib 41-10000 nM, first compound 0.41-33.33 nM
[9] = CAL51, combined with Alpelisib 41-10000 nM, first compound 0.41-100 nM
[10] = CAL51, combined with Capivasertib 41-10000 nM, first compound 0.41-100 nM
[11] = CAL51, combined with GNE-477 41-10000 nM, first compound 0.41-100 nM
[12] = CAL51, combined with HS173 41-10000 nM, first compound 0.41-100 nM
[13] = CAL51, combined with M2698 41-10000 nM, first compound 0.41-100 nM
[14] = CAL51, combined with Serabelisib 41-10000 nM, first compound 0.41-100 nM

Cc1cc(C)cc(NC(=O)OCc2ccc3c(c2)C(=O)N(C2CCC(=O)NC2=O)C3)c1 (stereo not shown) [Compound 1-4, [2-(2,6-dioxopiperidin-3-yl)-3-oxo-2,3-dihydro-1H-isoindol-5-yl]methyl N-(3,5-dimethylphenyl)carbamate]
Mean Bliss synergy score (MCF7 cell line; [1]): 9.41 | Mean Loewe synergy score (MCF7 cell line; [1]): 7.90 | Mean Bliss synergy score (MCF7 cell line; [2]): 17.96 | Mean Loewe synergy score (MCF7 cell line; [2]): 9.59 | Mean Bliss synergy score (MCF7 cell line; [3]): 17.17 | Mean Loewe synergy score (MCF7 cell line; [3]): 9.85 | Mean Bliss synergy score (MCF7 cell line; [4]): 9.39 | Mean Loewe synergy score (MCF7 cell line; [4]): 7.58 | Mean Bliss synergy score (MCF7 cell line; [5]): 3.51 | Mean Loewe synergy score (MCF7 cell line; [5]): 1.27 | Mean Bliss synergy score (MCF7 cell line; [6]): 14.55 | Mean Loewe synergy score (MCF7 cell line; [6]): 7.79 | Mean Bliss synergy score (MCF7 cell line; [7]): 4.26 | Mean Loewe synergy score (MCF7 cell line; [7]): 1.36 | Mean Bliss synergy score (MDA-MB-231 cell line): 2.10 | Mean Loewe synergy score (MDA-MB-231 cell line): 2.36 | Mean Bliss synergy score (MDA-MB-157 cell line): 4.94 | Mean Loewe synergy score (MDA-MB-157 cell line): 5.54 | Mean Bliss synergy score (CAL51 cell line; [8]): 10.76 | Mean Loewe synergy score (CAL51 cell line; [8]): 7.63 | Mean Bliss synergy score (CAL51 cell line; [9]): 36.63 | Mean Loewe synergy score (CAL51 cell line; [9]): 11.29 | Mean Bliss synergy score (CAL51 cell line; [10]): 30.43 | Mean Loewe synergy score (CAL51 cell line; [10]): 14.67 | Mean Bliss synergy score (CAL51 cell line; [11]): 15.82 | Mean Loewe synergy score (CAL51 cell line; [11]): 6.64 | Mean Bliss synergy score (CAL51 cell line; [12]): 8.74 | Mean Loewe synergy score (CAL51 cell line; [12]): 1.29 | Mean Bliss synergy score (CAL51 cell line; [13]): 16.31 | Mean Loewe synergy score (CAL51 cell line; [13]): 8.47 | Mean Bliss synergy score (CAL51 cell line; [14]): 5.71 | Mean Loewe synergy score (CAL51 cell line; [14]): −1.80 | Mean Bliss synergy score (CAL51 cell line; combined with Alpelisib (41 nM to 10 uM), CAL51 cell line, mean across dose response matrix, 72 hrs): 36.63

O=C1CCC(N2Cc3ccc(COC(=O)Nc4ccc(F)c(OC(F)F)c4)cc3C2=O)C(=O)N1 (stereo not shown) [Compound 1-3, [2-(2,6-dioxopiperidin-3-yl)-3-oxo-2,3-dihydro-1H-isoindol-5-yl]methyl N-[3-(difluoromethoxy)-4-fluorophenyl]carbamate]
Mean Bliss synergy score (MCF7 cell line; [1]): 17.71 | Mean Loewe synergy score (MCF7 cell line; [1]): 10.32 | Mean Bliss synergy score (MCF7 cell line; [6]): 25.34 | Mean Loewe synergy score (MCF7 cell line; [6]): 13.77 | Mean Bliss synergy score (MCF7 cell line; combined with Alpelisib (41 nM to 10 uM), MCF7 cell line, mean across dose response matrix, 72 hrs): 17.71 | Mean Bliss synergy score (MDA-MB-231 cell line): 5.67 | Mean Loewe synergy score (MDA-MB-231 cell line): 4.75 | Mean Bliss synergy score (MDA-MB-157 cell line): 6.71 | Mean Loewe synergy score (MDA-MB-157 cell line): 6.57 | Mean Bliss synergy score (CAL51 cell line; [8]): 13.63 | Mean Loewe synergy score (CAL51 cell line; [8]): 8.54 | Mean Bliss synergy score (CAL51 cell line; [13]): 30.29 | Mean Loewe synergy score (CAL51 cell line; [13]): 15.43

CC[C@H](Nc1ncnc2nc[nH]c12)c1nc2cccc(F)c2c(=O)n1-c1ccccc1 [idelalisib, 5-fluoro-3-phenyl-2-[(1S)-1-(7H-purin-6-ylamino)propyl]quinazolin-4-one]
Mean Loewe synergy score, RAJI (RAJI cell line): 3.47 | Mean Loewe synergy score, SUDHL6 (SU-DHL-6 cell line): 5.75 | Mean Loewe synergy score, WSU-DLCL2 (WSU-DLCL2 cell line): −2.08 | Mean Loewe synergy score, DOHH2 (DOHH-2 cell line): 4.04 | Mean Loewe synergy score, DB (DB cell line): −3.25

O=C1CCC(N2Cc3ccc(COC(=O)Nc4ccc(F)c(OC(F)(F)F)c4)cc3C2=O)C(=O)N1 (stereo not shown) [Compound 1-2, [2-(2,6-dioxopiperidin-3-yl)-3-oxo-2,3-dihydro-1H-isoindol-5-yl]methyl N-[4-fluoro-3-(trifluoromethoxy)phenyl]carbamate]
Mean Bliss synergy score (MCF7 cell line; [1]): 14.93 | Mean Loewe synergy score (MCF7 cell line; [1]): 11.94 | Mean Bliss synergy score (MCF7 cell line; [6]): 19.15 | Mean Loewe synergy score (MCF7 cell line; [6]): 12.31 | Mean Bliss synergy score (MDA-MB-231 cell line): 1.26 | Mean Loewe synergy score (MDA-MB-231 cell line): 3.82 | Mean Bliss synergy score (MDA-MB-157 cell line): 4.58 | Mean Loewe synergy score (MDA-MB-157 cell line): 5.68 | Mean Bliss synergy score (CAL51 cell line; [8]): 13.24 | Mean Loewe synergy score (CAL51 cell line; [8]): 10.04 | Mean Bliss synergy score (CAL51 cell line; [13]): 20.45 | Mean Loewe synergy score (CAL51 cell line; [13]): 10.06 | Mean Bliss synergy score (CAL51 cell line; combined with M2698 (41 nM to 10 uM), CAL51 cell line, mean across dose response matrix, 72 hrs): 20.45

O=C1CCC(N2Cc3ccc(COC(=O)Nc4cccc(OC(F)(F)F)c4)cc3C2=O)C(=O)N1 (stereo not shown) [Compound 1-5, [2-(2,6-dioxopiperidin-3-yl)-3-oxo-2,3-dihydro-1H-isoindol-5-yl]methyl N-[3-(trifluoromethoxy)phenyl]carbamate]
Mean Bliss synergy score (MCF7 cell line; [1]): −2.19 | Mean Loewe synergy score (MCF7 cell line; [1]): 6.06 | Mean Bliss synergy score (MCF7 cell line; [6]): 5.35 | Mean Loewe synergy score (MCF7 cell line; [6]): 12.24 | Mean Bliss synergy score (MDA-MB-231 cell line): 1.74 | Mean Loewe synergy score (MDA-MB-231 cell line): 3.68 | Mean Bliss synergy score (MDA-MB-157 cell line): 2.85 | Mean Loewe synergy score (MDA-MB-157 cell line): 4.08 | Mean Bliss synergy score (CAL51 cell line; [8]): −0.17 | Mean Loewe synergy score (CAL51 cell line; [8]): 7.63 | Mean Bliss synergy score (CAL51 cell line; [13]): 7.95 | Mean Loewe synergy score (CAL51 cell line; [13]): 11.33

Source: patent US20260166045A1, “COMBINATION THERAPY COMPRISING GSPT1-DIRECTED MOLECULAR GLUE DEGRADERS AND PI3K/AKT/mTOR PATHWAY INHIBITORS” (Monte Rosa Therapeutics, Inc., priority 2022, published 2026)
